This is an account of results in US20250276034A1, “RELEASE-CONTROLLED TOPICAL INJECTION COMPOSITION CONTAINING CYCLIC PEPTIDE AND PREPARATION METHOD THEREFOR” (ORIENTBIO INC., priority 2021, published 2025).

Series [1] can be described thus: Drug remaining at administration site, non-administration site and in blood after topical injection (LC/MS). The class given is in vivo, mice (C57BL/6). As for the experimental part:
Specifically, the drug level in blood was determined by a liquid-liquid extraction method using methyl tert-butyl ether (MTBE) and LC/MS analysis. Preparation of skin samples at a targeted site and a non-administration site and the liquid-liquid-phase extraction method using MTBE were the same as in Experimental Example 9. […] After initially increasing the proportion of mobile phase B to 20% for 3 minutes to equilibrate the mobile phase, the flow rate of the mobile phase was 0.4 ml/min and the sample injection volume was 3 μl. In addition, as a mass spectrometer, a 4000 Q TRAP Mass Spectrometer system from Applied Bioscience was used.

A short description of series [2]: In-vitro skin penetration and skin deposition (Franz diffusion cell). The class given is in vitro ADME. The following applies: porcine skin, 200 μg OND-1 in 0.2 ml olive oil, 37° C. As for the experimental part:
A percutaneous absorption diffusion test (Franz diffusion cell) was conducted to determine skin penetration of position 3-substituted cyclosporine derivatives by topical skin application.
Specifically, frozen porcine skin was thawed, followed by removal of subcutaneous fat from the dermis, and then the skin was cut into a disc shape with a diameter of 3 cm. Then, the skin was mounted in a skin permeation device (Franz diffusion, receptor volume: 5 ml, diffusion area: 0.785 cm^2) with the stratum corneum facing an upper donor chamber and the dermis facing a lower receptor chamber. […] Hourly, 500 μl of a receiving solution (PBS containing 0.2% Tween 80, pH: 7.4) was sampled, followed by replenishment with an equal volume of fresh one.
The position 3-substituted cyclosporine derivative in the sampled solution was subjected to quantitative analysis by HPLC, followed by calculation of the average value of five replicates to determine the permeation amount of the position 3-substituted cyclosporine derivative.
After 24 hours of use, the skin was removed from the skin permeation device, washed several times with ethanol, dried, and tape-stripped (10 times with scotch tape) to completely remove any residual drug from the surface thereof. The collected skin samples were lysed by incubation with collagenase type I (Gibco®) solution at 37° C. for 24 hours. Thereafter, samples were obtained by a liquid-liquid phase extraction method using methyl tert-butyl ether (MTBE), followed by quantitative analysis of the position 3-substituted cyclosporine derivative by HPLC to calculate the quantity of drug deposited in the skin.
Details of the liquid-liquid extraction method are as follows. A 200 μl to 400 μl aliquot of each of the lysed skin samples was dispensed, followed by addition of 1.2 ml of MTBE. After high-speed shaking for 10 minutes, an organic solvent layer (1 ml) was separated by centrifugation (13,000 rpm, 3 minutes) and then dried under nitrogen flow for 10 minutes. Thereafter, the organic solvent layer was dissolved with a reconstituted solvent (75% acetonitrile) and filtered through a syringe filter to obtain a sample for analysis.

Series [3] is described as follows: Determination of crystallinity by differential scanning calorimetry (DSC). The series is classed as physicochemical. Conditions: raw powder, heating curves. As for the experimental part: Differential scanning calorimetry (DSC) was used to identify a difference in crystallinity between cyclosporine A and OND-1 by determining the melting point, glass transition temperature, and recrystallization of the drugs. DSC measurement conditions were as follows.
DSC (model name: DSC Q2000; manufacturer: TA instruments; purging gas: N2 gas (flow: 70 mL/min); heating rate: 5° C./min; isothermal temperature: 10° C./min; cycle number: 1 (from 20° C. to 200° C.)
For orientation: DSC measures the heat that a sample takes up or gives off during a temperature scan.

Series [4] is described as follows: Partition coefficient (log P). The series is classed as physicochemical.
Series [5] can be described thus: Determination of crystallinity by X-ray diffraction (XRD). The class given is physicochemical. The following applies: raw powder and after evaporation or drowning-out crystallization. As for the experimental part: XRD measurement conditions and a crystallization method used in this experiment are as follows.
X-ray diffractometer (model name: MiniFlex, Rigaku, Tokyo, Japan/-X-ray generator: graphite monochromatized Cu Kα radiation (λ=1.5418 Å, 2θ range: from 10° to 30° with a step size of 0.02°/−Scanning rate: 1.0°/min)

Another series can be described thus: Solubility in water. The class given is physicochemical.

Values after ≈ are worked out from the molar mass of the structure shown.

In the case of `C/C=C/C[C@@H](C)[C@@H](O)[C@H]1C(=O)N[C@@H](CC)C(=O)N(C)[C@H](SC)C(=O)N(C)[C@@H](CC(C)C)C(=O)N[C@@H](C(C)C)C(=O)N(C)[C@@H](CC(C)C)C(=O)N[C@@H](C)C(=O)N[C@H](C)C(=O)N(C)[C@@H](CC(C)C)C(=O)N(C)[C@@H](CC(C)C)C(=O)N(C)[C@@H](C(C)C)C(=O)N1C` [OND-1, [D-2-methylthio-Sar^3]cyclosporine A], the “Analysis of OND-1 level in systemic blood (μg/ml)” value in series [1] (C57BL/6 mice, topical injection of depot solution containing particles of Example 1-B, individual test subjects 1-5) is “Not detected”. Besides, in series [1] (C57BL/6 mice, topical injection of depot solution containing particles of Example 1-B, skin, individual test subjects 1-5), the “Quantity of OND-1 remaining at non-administration site (μg/g)” value is on record as “Not detected”. Also, in series [1] (mice, topical injection), the “OND-1 detected in the skin at the site of topical administration” value is “highly detected”. The “OND-1 detected in the surrounding skin or the systemic blood” value in series [1] (mice, topical injection) is “rarely detected”. Further, the “Penetration rate (μg/cm^2)” value in series [2] (6 hr) stood at 1.3 μg/cm^2; in series [2] (14 hr), 1.1 μg/cm^2; in series [2] (20 hr), 0.2 μg/cm^2; in series [2] (24 hr) it was 1.1 μg/cm^2. Moreover, the “crystallinity by DSC” value in series [3] is given as “amorphous”. Moreover, the logP in series [4] amounted to 3.84. In series [5], the XRD pattern entry was “amorphous XRD pattern”. In the series “Solubility in water”, the solubility came to 10 µg/mL (≈ 8.01 µM).
“Cyclosporine A [CsA, reference compound]”: the “crystallinity by DSC” value in series [3] is “crystalline”. The XRD pattern entry in series [5] is reported as “crystalline XRD pattern”.

For orientation: logP means a log measure of how a compound divides between an organic and an aqueous phase. Read a low logP as a more hydrophilic compound. What is called solubility is how much of the substance goes into solution per volume. Lower therefore signals little dissolved substance.
